Data from patent US10202408B2, “Prodrugs and methods of use thereof” (Health Innovation Ventures B.V., priority 2012, dated 2019).
Entries after “also recorded” stand apart in the source; their conditions may differ.

Key:
[1] = test system: H1299 cells engineered to over-express E coli NfsA; test: Low cell density IC50 (SRB) assay, H1299 wild type versus E coli NfsA over-expressing cells; assay type: cell-based, human
Experimental: (§1) Compounds were subjected to testing, including low-cell density cytotoxicity assay. Cells (500 cells/well) were seeded in 96-well plates and exposed to prodrug for 4 h, washed, then left to grow for a further 5 days. The SRB assay was employed to determine IC50 values (concentration of prodrug required to inhibit proliferation by 50%). Parental HCT116 cells (HCT116 is a cell line derived from human colon cancer) and cells expressing the example nitroreductase gene nfsA from Escherichia coli were evaluated head-to-head. Parental H1299 cells (H1299 is a cell line derived from lung cancer) and cells expressing the example nitroreductase gene nfsA from Escherichia coli were evaluated head-to-head. Parental HCT116 cells and cells expressing human AKR1C3 were evaluated head-to-head. Parental H1299 cells and cells expressing human AKR1C3 were evaluated head-to-head. In a variation of these assays test compounds were assessed for their ability to give hypoxia-selective cell killing. Here wild type HCT116, H460 (H460 is a cell line derived from lung cancer), H1299 and SiHa cells (SiHa is a cell line derived from cervical cancer) were used in addition to HCT116 cells engineered to over express cytochrome P450 reductase (HCT116 POR), a human one-electron nitroreductase. Low-cell density cytotoxicity assays were performed as above under oxic conditions and compared to experiments where cells were shown 4 h of anoxia during the prodrug exposure period, before being washed free of prodrug and then left to grow for a further 5 days under oxic conditions, as above.

[2] = test system: HCT116 cells engineered to over-express E coli NfsA; test: Low cell density IC50 (SRB) assay, HCT116 wild type versus E coli NfsA over-expressing cells; assay type: cell-based, human
Experimental: as §1

[3] = test system: HCT116 MCLs over-expressing AKR1C3; test: Multicellular layer (MCL) clonogenic assay, HCT116 wild type versus AKR1C3 over-expressing MCLs; assay type: cell-based, human
Experimental: (§2) In parallel, a three dimensional high-cell density multi-cellular layer (MCL) clonogenic assay was performed. 1×10^6 cells of either 100% HCT-116^WT or containing 97% WT with a minor 3% HCT-116^NTR cell population were seeded into a collagen-coated Teflon microporous membrane and left to grow for 3 days. MCLs were then exposed to prodrug for 5 h. After treatment, MCLs were enzyme dissociated, diluted in fresh medium and plated to determine clonogenic survival. To discriminate clonogenic activator (NTR+) from target (NTR−) colonies, cells were plated in non-selective medium (total cells) and medium containing 1 μM puromycin (activator cells). Colonies were grown for 10 days before staining. Colonies containing >50 cells were counted. A variation of this assay was also used to assess for evidence of AKR1C3-dependent cytotoxicity. Here either 100% HCT-116W^T or 100% HCT-116^AKR1C3 cells were seeded to provide MCLs that were then exposed to prodrug.

[4] = test system: HCT116 cells engineered to over-express human aldo-ketoreductase 1C3 (AKR1C3); test: Low cell density IC50 (SRB) assay, HCT116 wild type versus AKR1C3 over-expressing cells; assay type: cell-based; details: 4 h exposure
Experimental: as §1

[5] = test system: bacterial nitroreductases from the NfsA and NfsB families; test: GFP SOS assay with nitroreductase over-expression library; assay type: cell-based, E. coli strain SOS-R4; details: 55 candidate nitroreductase library, 6 h challenge
From the text: The method employed the over-expression of a candidate nitroreductase gene from plasmid pUCX in an SOS reporter strain, as first described in Prosser et al., 2010, Biochem Pharmacol 79, 678-687. In order to enhance the sensitivity of the SOS reporter system, an sfiA::GFP reporter construct was integrated into a CDF-based plasmid (which contains a compatible origin of replication with pUCX) to give the pANODuet reporter plasmid for GFP screening. In addition, nfsA, nfsB, azoR, and nemA genes were deleted to minimise background metabolism, and the tolC gene deleted to minimise efflux of test compounds; this strain was designated SOS-R3. Further improvements were obtained by deleting the mdaB, ycaK, and yieF genes to minimise background metabolism, and by introducing transcriptional terminators to the pANODUET reporter plasmid. This final reporter strain was designated SOS-R4.
Stored glycerols of the 55-membered nitroreductase library in SOS-R4 were thawed and used to inoculate overnight cultures (Lysogeny Broth (LB) amended with 100 μg ml^−1 Ampicillin, 50 μg ml^−1 Spectinomycin, 0.4% glucose) that were incubated at 30° C., 200 rpm for 16 h. The next morning the GFP-SOS assay was commenced by inoculation of 195 μl fresh assay media (LB+100 μg ml^−1 Ampicillin, 50 μg ml^−1 Spectinomycin, 0.2% glucose, 50 μM IPTG) with 15 μl of overnight culture in individual wells of a 96-well plate. Plates were incubated at 30° C., 200 rpm for 2.5 h (pre-challenge period), following which cultures were diluted 1:2 by splitting 50:50 into fresh assay media (+DMSO to 0.5% final concentration) and fresh challenge media (assay media+drug to desired concentration, DMSO to 0.5% final concentration) to final volumes of 80 μl apiece in duplicate on a 384-well plate. Plates were incubated at 30° C., 200 rpm for 6 h (challenge period). GFP expression was determined at excitation 488 nm/emission 509 nm. Turbidity was determined by OD600 and fluorescence data from any replicates not found to be within 15% of the median culture turbidity were discarded.

[6] = test system: bacterial nitroreductases from the NfsA and NfsB families; test: as above; assay type: cell-based, E. coli strain SOS-R4; details: single and poly mutated variants of NfsA_Ec, single-mutated variant of NfsA_Bs
[7] = test system: HCT116 MCLs with 3% E coli NfsA-expressing cells; test: MCL clonogenic bystander assay, HCT116 MCLs seeded with 3% E coli NfsA-expressing cells; assay type: cell-based, human; details: 97% wild type HCT116, 3% E coli NfsA-expressing cells
Experimental: as §2

[8] = test system: wild type SiHa tumour xenografts; test: Excision assay with and without radiation, wild type SiHa tumour xenografts; assay type: in vivo, NIH-III nude mice
Experimental: Tumours were grown subcutaneously in the flank of NIH-III mice by inoculating cells grown in tissue culture. Tumours were monitored using electronic calipers. When tumours reached treatment size, mice were randomized to treatment groups (five to seven per group). Compounds were given as single (or BID) intraperitoneal doses alone or 5 min after whole body irradiation (^60Co source). Eighteen hours after treatment, tumours were excised, weighed, minced, dissociated enzymatically, and plated to determine clonogenicity. Clonogens/gram of tissue were calculated relative to controls and effects of treatment were tested for significance (ANOVA with Dunnett's).

[9] = test system: 15% E coli NfsA-expressing H1299 xenografts; test: Tumour growth delay, 15% E coli NfsA-expressing H1299 xenografts; assay type: in vivo, NIH-III mice
Experimental: Animals weighed 18-25 g at the time of tumour inoculation. Tumours were grown subcutaneously on the right flank of mice by inoculating cells grown in tissue culture (1×10^7 cells in 100 uL serum free α-MEM). Tumour sizes were monitored three times weekly using electronic callipers and treatments were initiated once tumour diameter reached ≥7 mm.
Tumour bearing mice were randomised into the appropriate treatment groups and tumour size and body weight recorded. Test compounds were formulated on the day of the experiment and kept in foil-wrapped tubes out of direct fluorescent light. If recruitment of animals occurred over multiple days, the drug stocks were aliquoted into tubes and frozen once at […] until required. Mice were treated with a single (or BID) dose of prodrug by intraperitoneal injection and thereafter tumour size and body weight was monitored every second day. Tumour volume was calculated as π (l×w×w)/6, where l is the major axis and w is the perpendicular minor axis. Animals were culled when they had reached the appropriate survival endpoint or when body weight loss exceeded 20% of the pre-treatment value.

[10] = test system: H1299 cells engineered to over-express human aldo-ketoreductase 1C3 (AKR1C3); test: Low cell density IC50 (SRB) assay, H1299 wild type versus AKR1C3 over-expressing cells; assay type: cell-based; details: 4 h exposure
Experimental: as §1

Structure (SMILES) | E coli NfsA-mediated cytotoxicity (IC50 wild type versus NfsA) [1] | E coli NfsA-mediated cytotoxicity (IC50 wild type versus NfsA) [2] | AKR1C3-dependent clonogenic cell kill in MCLs [3] | AKR1C3-mediated cytotoxicity (IC50 wild type versus AKR1C3) [4] | metabolism by bacterial nitroreductases (SOS response) [5] | activity with mutated nitroreductase variants [6] | bystander cell killing in MCLs [7] | also measured
CS(=O)(=O)OCCN(CCBr)c1c(C(=O)NCCO)cc([N+](=O)[O-])cc1[N+](=O)[O-] [PR-104A, 2-((2-bromoethyl)(2-((2-hydroxyethyl)carbamoyl)-4,6-dinitrophenyl)amino)ethyl methanesulfonate, reference compound] | produce E coli NfsA-mediated cytotoxicity | produce E coli NfsA-mediated cytotoxicity | – | – | – | – | – | –
CCCN(CCO)C(=O)c1cc([N+](=O)[O-])cc([N+](=O)[O-])c1N(CCBr)CCBr [compound 9, reference compound] | – | – | capable of producing AKR1C3-dependent cell ablation | appears to be AKR1C3-negative; also recorded: appear negative for AKR1C3 dependent cell sensitivity | – | – | – | –
CS(=O)(=O)OCCN(CCBr)c1ccc([N+](=O)[O-])cc1C(=O)NCCO [compound 64, 2-((2-bromoethyl)(2-((2-hydroxyethyl)carbamoyl)-4-nitrophenyl)amino)ethyl methanesulfonate] | produce E coli NfsA-mediated cytotoxicity | produce E coli NfsA-mediated cytotoxicity | do not cause AKR1C3-dependant cytotoxicity | less susceptible to AKR1C3-mediated cytotoxicity than PR-104A | substrates for multiple wild type and mutant bacterial nitroreductases from the NfsA and NfsB families | demonstrated | display evidence of metabolism by the 3% E coli NfsA-expressing cells with bystander cell killing of the 97% non-expressing neighbour cells | –
CCS(=O)(=O)c1cc([N+](=O)[O-])c(C(=O)N(C)CCOP(=O)(O)O)cc1N(CCBr)CCBr [compound 11, 2-(5-(bis(2-bromoethyl)amino)-4-(ethylsulfonyl)-N-methyl-2-nitrobenzamido)ethyl dihydrogen phosphate] | – | – | – | – | – | – | – | cell killing in combination with radiation versus radiation alone ([8]; HCT116 POR and wild type SiHa xenografts, 10 or 15Gy, single (or BID) intraperitoneal dose): increased cell killing above what could be achieved with radiation alone; hypoxic cell kill in vivo (log cell kill) ([8]; with or without 10Gy radiation, 22 at 422, 300 and 11 at 1330, 23 at 1000 umol/kg): significant hypoxic cell kill in vivo; tumour growth delay ([9]; mixed HCT116 and H1299 xenografts, 15% E coli NfsA cells, single (or BID) intraperitoneal dose): profound tumour growth delay; E coli NfsA mediated anti-tumour efficacy (mean tumour volume) ([9]; single dose, 10, 22, 60 and 11 at 750, 422, 1330 and 1330 umol/kg): display significant E coli NfsA mediated anti-tumour efficacy
CC(C)N(CCO)C(=O)c1cc([N+](=O)[O-])cc([N+](=O)[O-])c1N(CCBr)CCBr [compound 8, reference compound] | – | – | – | appear negative for AKR1C3 dependent cell sensitivity | – | – | – | –
CCS(=O)(=O)c1cc([N+](=O)[O-])c(C(=O)N2CCN(C(C)C)CC2)cc1N(CCBr)CCBr [compound 27, (5-(bis(2-bromoethyl)amino)-4-(ethylsulfonyl)-2-nitrophenyl)(4-isopropylpiperazin-1-yl)methanone] | produce E coli NfsA-mediated cytotoxicity | produce E coli NfsA-mediated cytotoxicity | do not cause AKR1C3-dependant cytotoxicity | less susceptible to AKR1C3-mediated cytotoxicity than PR-104A | substrates for multiple wild type and mutant bacterial nitroreductases from the NfsA and NfsB families | demonstrated | display evidence of metabolism by the 3% E coli NfsA-expressing cells with bystander cell killing of the 97% non-expressing neighbour cells | AKR1C3-mediated cytotoxicity (IC50 wild type versus AKR1C3) [10]: less susceptible to AKR1C3-mediated cytotoxicity than PR-104A
CC(C)N1CCN(C(=O)c2cc(N(CCBr)CCBr)c(S(C)(=O)=O)cc2[N+](=O)[O-])CC1 [compound 24, (5-(bis(2-bromoethyl)amino)-4-(methylsulfonyl)-2-nitrophenyl)(4-isopropylpiperazin-1-yl)methanone] | produce E coli NfsA-mediated cytotoxicity | produce E coli NfsA-mediated cytotoxicity | do not cause AKR1C3-dependant cytotoxicity | less susceptible to AKR1C3-mediated cytotoxicity than PR-104A | substrates for multiple wild type and mutant bacterial nitroreductases from the NfsA and NfsB families | demonstrated | display evidence of metabolism by the 3% E coli NfsA-expressing cells with bystander cell killing of the 97% non-expressing neighbour cells | AKR1C3-mediated cytotoxicity (IC50 wild type versus AKR1C3) [10]: less susceptible to AKR1C3-mediated cytotoxicity than PR-104A
CCN(CCO)C(=O)c1cc([N+](=O)[O-])cc([N+](=O)[O-])c1N(CCBr)CCBr [compound 7, reference compound] | – | – | capable of producing AKR1C3-dependent cell ablation | – | – | – | – | –
